Some results are limits rather than exact numbers.

Data set [1] in a line: Blood-brain barrier penetration (brain tissue to plasma concentration ratio). In kind it is in vivo. The conditions noted are these: ratio of concentration in brain tissue to plasma; rats or mice, four hours after dosing. The procedure: Four hours after dosing, rats or mice were sacrificed, blood and brain tissue were collected and the concentration of the test compound was analyzed. Brain permeation is defined as the ratio of the concentration of the compound in the brain tissue to the concentration in the plasma. P-glycoprotein and BCRP (Breast Cancer Resistance Protein) are the blood-brain barrier efflux proteins, the P-glycoprotein substrate (Efflux ratio>1.5) and/or BCRP substrate (Efflux ratio>1.5) is out of the brain.

The target in another data set is P-glycoprotein (Homo sapiens, UniProt P08183). The data set can be described thus: P-glycoprotein efflux substrate. The conditions noted are these: not told. In kind it is in vitro ADME.
Sequence of P-glycoprotein (P08183 whole entry): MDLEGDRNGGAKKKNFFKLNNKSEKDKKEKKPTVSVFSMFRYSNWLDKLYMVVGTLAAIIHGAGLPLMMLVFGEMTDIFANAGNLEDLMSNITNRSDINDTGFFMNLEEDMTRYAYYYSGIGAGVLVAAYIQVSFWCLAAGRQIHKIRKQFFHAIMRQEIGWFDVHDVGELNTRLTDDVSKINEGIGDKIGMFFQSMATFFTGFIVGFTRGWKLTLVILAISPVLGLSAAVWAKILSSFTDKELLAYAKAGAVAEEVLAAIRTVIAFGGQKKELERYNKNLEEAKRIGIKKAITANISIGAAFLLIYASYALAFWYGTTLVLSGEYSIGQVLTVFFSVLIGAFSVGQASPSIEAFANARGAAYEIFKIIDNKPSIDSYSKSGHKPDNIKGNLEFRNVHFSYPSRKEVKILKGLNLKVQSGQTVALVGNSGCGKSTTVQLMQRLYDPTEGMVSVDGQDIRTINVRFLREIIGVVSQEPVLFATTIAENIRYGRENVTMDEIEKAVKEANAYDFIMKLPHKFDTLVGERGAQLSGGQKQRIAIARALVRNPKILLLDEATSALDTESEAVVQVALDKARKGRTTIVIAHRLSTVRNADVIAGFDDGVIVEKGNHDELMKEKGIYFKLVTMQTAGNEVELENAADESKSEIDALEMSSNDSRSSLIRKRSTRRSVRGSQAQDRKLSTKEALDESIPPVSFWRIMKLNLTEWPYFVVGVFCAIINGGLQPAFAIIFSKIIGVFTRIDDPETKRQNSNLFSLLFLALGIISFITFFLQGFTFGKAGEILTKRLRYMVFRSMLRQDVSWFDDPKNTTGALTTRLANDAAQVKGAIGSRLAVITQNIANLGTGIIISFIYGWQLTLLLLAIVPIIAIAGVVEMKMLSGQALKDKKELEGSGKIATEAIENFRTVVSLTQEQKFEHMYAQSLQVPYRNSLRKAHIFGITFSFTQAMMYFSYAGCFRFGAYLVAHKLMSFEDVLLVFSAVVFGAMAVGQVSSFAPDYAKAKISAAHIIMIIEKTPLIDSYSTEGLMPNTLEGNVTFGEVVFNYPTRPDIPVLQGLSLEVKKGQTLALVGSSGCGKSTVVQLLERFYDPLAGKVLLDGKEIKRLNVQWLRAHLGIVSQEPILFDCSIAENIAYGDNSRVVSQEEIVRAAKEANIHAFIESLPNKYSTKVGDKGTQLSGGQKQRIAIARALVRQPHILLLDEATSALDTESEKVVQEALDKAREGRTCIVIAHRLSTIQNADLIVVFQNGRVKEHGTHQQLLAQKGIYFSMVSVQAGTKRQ
Another data set deals with T1, BCRP (Homo sapiens, UniProt Q9UNQ0).
T1 sequence (Q9UNQ0 1-655): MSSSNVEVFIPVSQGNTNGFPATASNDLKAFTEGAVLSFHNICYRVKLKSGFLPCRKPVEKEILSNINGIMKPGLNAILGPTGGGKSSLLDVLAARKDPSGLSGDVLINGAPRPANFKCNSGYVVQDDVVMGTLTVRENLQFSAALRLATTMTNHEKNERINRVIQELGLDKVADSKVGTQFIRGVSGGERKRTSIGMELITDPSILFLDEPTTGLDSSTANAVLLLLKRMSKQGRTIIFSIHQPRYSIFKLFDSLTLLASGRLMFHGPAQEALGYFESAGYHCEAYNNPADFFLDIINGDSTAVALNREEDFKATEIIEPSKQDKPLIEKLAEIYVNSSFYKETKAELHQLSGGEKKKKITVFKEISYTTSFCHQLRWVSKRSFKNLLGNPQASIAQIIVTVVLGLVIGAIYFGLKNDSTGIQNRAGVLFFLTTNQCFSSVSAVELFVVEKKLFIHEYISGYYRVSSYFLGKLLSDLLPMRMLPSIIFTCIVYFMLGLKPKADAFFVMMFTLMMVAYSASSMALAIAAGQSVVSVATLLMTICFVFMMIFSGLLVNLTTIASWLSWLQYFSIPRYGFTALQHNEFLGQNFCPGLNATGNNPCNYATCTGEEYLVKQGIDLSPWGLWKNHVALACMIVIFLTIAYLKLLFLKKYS
Nature of the data set: BCRP efflux substrate. In kind it is in vitro ADME. The conditions noted are these: not told.

Turning to `COc1ccc(-c2ccc3ncc4c(c3c2)n([C@H]2CCN(C(C)C)CC2(F)F)c(=O)n4C)cn1` [Compound 30, (S)-1-(3,3-difluoro-1-isopropylpiperidin-4-yl)-8-(6-methoxypyridin-3-yl)-3-methyl-1,3-dihydro-2H-imidazo[4,5-c]quinolin-2-one], the Kp – broadly, tissue or fluid exposure divided by exposure in the circulation – at 4 h in data set [1] is above 0.3. Besides, the efflux ratio on P-glycoprotein and at BCRP was below 1 each time.

On to `CCOc1ccc(-c2ccc3ncc4c(c3c2)n([C@H]2CCN(C)CC2(F)F)c(=O)n4C)cn1` [Compound 31, (S)-1-(3,3-difluoro-1-methylpiperidin-4-yl)-8-(6-ethoxypyridin-3-yl)-3-methyl-1,3-dihydro-2H-imidazo[4,5-c]quinolin-2-one], for which the Kp at 4 h in data set [1] is above 0.3. Besides, the efflux ratio at P-glycoprotein and on BCRP was below 1 each time.

Consider `COc1ccc(-c2cc3c(cc2F)ncc2c3n([C@H]3CCN(C)CC3(F)F)c(=O)n2C)cn1` [Compound 32, (S)-1-(3,3-difluoro-1-methylpiperidin-4-yl)-7-fluoro-8-(6-methoxypyridin-3-yl)-3-methyl-1,3-dihydro-2H-imidazo[4,5-c]quinolin-2-one], for which, in data set [1], the concentration ratio (Kp) at 4 h was above 0.3. Further, the efflux ratio on P-glycoprotein and at BCRP was below 1 in each case.

With `CC(C)Oc1ccc(-c2ccc3ncc4c(c3c2)n([C@H]2CCN(C)CC2(F)F)c(=O)n4C)cn1` [Compound 34, (S)-1-(3,3-difluoro-1-methylpiperidin-4-yl)-8-(6-isopropoxypyridin-3-yl)-3-methyl-1,3-dihydro-2H-imidazo[4,5-c]quinolin-2-one], the Kp at 4 h in data set [1] is above 0.3. In addition, the efflux ratio on P-glycoprotein and on BCRP was below 1 throughout.

On to `CN1CC[C@H](n2c(=O)n(C)c3cnc4ccc(-c5ccc(N(C)C)nc5)cc4c32)C(F)(F)C1` [Compound 35, (S)-1-(3,3-difluoro-1-methylpiperidin-4-yl)-8-(6-(dimethylamino)pyridin-3-yl)-3-methyl-1,3-dihydro-2H-imidazo[4,5-c]quinolin-2-one], for which the concentration ratio (Kp) at 4 h in data set [1] was above 0.3. For the same molecule, the efflux ratio on P-glycoprotein and at BCRP was below 1 each time.

Turning to `CN1CC[C@H](n2c(=O)n(C)c3cnc4ccc(-c5ccc(OC6CC6)nc5)cc4c32)C(F)(F)C1` [Compound 37, (S)-8-(6-cyclopropoxypyridin-3-yl)-1-(3,3-difluoro-1-methylpiperidin-4-yl)-3-methyl-1,3-dihydro-2H-imidazo[4,5-c]quinolin-2-one], the partition ratio (Kp) at 4 h in data set [1] is above 0.3. The efflux ratio on P-glycoprotein and on BCRP was below 1 each time.

`CN1CC[C@H](n2c(=O)n(C)c3cnc4ccc(-c5ccc(N6CC(N(C)C)C6)nc5)cc4c32)C(F)(F)C1` [Compound 38, (S)-1-(3,3-difluoro-1-methylpiperidin-4-yl)-8-(6-(3-(dimethylamino)azetidin-1-yl)pyridin-3-yl)-3-methyl-1,3-dihydro-2H-imidazo[4,5-c]quinolin-2-one]: in data set [1], the Kp at 4 h is above 0.3. Moreover, the efflux ratio on P-glycoprotein and at BCRP was below 1 throughout.

Turning to `CN1CC[C@H](n2c(=O)n(C)c3cnc4ccc(-c5ccc(N6C[C@@H]7[C@H]6CCN7C)nc5)cc4c32)C(F)(F)C1` [Compound 40], the partition ratio (Kp) at 4 h in data set [1] is above 0.3. For the same molecule, the efflux ratio at P-glycoprotein and at BCRP was below 1 in each case.

For `CN1CC[C@H](n2c(=O)n(C)c3cnc4ccc(-c5ccc(N6C[C@H]7[C@@H]6CCN7C)nc5)cc4c32)C(F)(F)C1` [Compound 41], the concentration ratio (Kp) at 4 h in data set [1] was above 0.3. In addition, the efflux ratio at P-glycoprotein and on BCRP was below 1 in each case.

The record behind these values is patent US11919899B2, “Substituted 1-(3,3-difluoropiperidin-4-yl)-imidazo[4,5-c] quinolin-2-one compounds with blood-brain barrier penetrable capability” (priority 2020, dated 2024).
